The subject of assay [1] is HCV genotype 1a replicon cell line (APC89; Huh7.5 cell background). The experiment in a line: HCV Genotype 1a Replicon Assay (NS3-specific protease activity readout). It counts as cell-based. The following applies: Hepatitis C virus. A digest of the protocol: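 Genotype 1a subgenomic replicon cells (APC89, Huh7.5) were treated with compound dose-responses in G418-free medium, 0.5% DMSO final, for 48 or 72 hours at 37° C. Lysate NS3/4a protease activity measured with 15 μM FRET substrate, 20 min at 37° C (ex 340/em 509 nm); EC50 by 4-parameter fit.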

Assay [2] relates to HCV genotype 1b replicon cell line (APC144; Huh7 cell background). The assay is described as follows: HCV Genotype 1b Replicon Assay (Renilla luciferase readout). It counts as cell-based. The following applies: Hepatitis C virus, Huh-7; read-out: Genotype 1b (pEC50 class, HCV genotype 1b replicon assay) (converted). From the text:
Assay 1: HCV Genotype 1b Replicon Assay
The HCV genotype 1b replicon cell line was obtained from Apath LLC (Brooklyn, N.Y.) (APC144; Huh7 cell background). This subgenomic replicon contains the N-terminus of the HCV core protein fused to the neomycin-resistance selectable marker. The EMCV IRES lies downstream and drives expression of humanized Renilla luciferase fused to the non-structural proteins NS3-NS5B. This cell line was used to determine compound potency using the luciferase activity readout as a measurement of compound inhibition of replicon levels.
Cells were grown at 37° C. in a 5% CO2 humidified incubator in DMEM (Invitrogen) with 10% FBS (HyClone), 1×NEAA (Invitrogen), 1× Pen-Strep (Invitrogen), and 500 μg/mL G418 (Invitrogen). On day 1 of the assay, cells were plated at 10,000 cells/well in white 96-well tissue culture plates (Costar) in 200 μL media lacking G418. Four hours later, once the cells have adhered, the media was removed and replaced with media (no G418) containing dose-responses of test compounds. Compounds were initially diluted in DMSO and then diluted another 200× in media to bring the final DMSO concentration down to 0.5%. The cells were incubated with test compounds for 48 hours. At the end of the incubation period, media and compound were removed from the plates and the luciferase activity was determined using Promega Renilla-Glo reagents.
To analyze the data, the luciferase activity was plotted vs. the compound concentration, and EC50 values were determined from a 4-parameter robust fit model with the GraphPad Prism software package (GraphPad Software, Inc., San Diego, Calif.). Results are expressed as the negative decadic logarithm of the EC50 value, pEC50.
Test compounds having a higher pEC50 value in this assay show greater inhibition of HCV genotype 1b replication.

[3] abbreviates: 72 hour incubation, read-out: Genotype 1a (pEC50 class, HCV genotype 1a replicon assay) (converted).
[4] abbreviates: compounds incubated for 48 hours, read-out: Genotype 1a (pEC50 class, HCV genotype 1a replicon assay), * results (converted).

Read-outs that look alike come from different tables or passages of the source.

Regarding `COC(=O)N[C@H](C(=O)N1CCC[C@H]1c1nc(-c2ccc(-c3ccc(NC(=O)c4ccc(N5CCN(C(=O)[C@H]6CC6(C)C)C[C@H]5C)nc4)cc3C(F)(F)F)cc2)c[nH]1)C(C)C` [Example 34, [(S)-1-((S)-2-{5-[4′-({6-[(R)-4-((S)-2,2-Dimethyl-cyclopropanecarbonyl)-2-methyl-piperazin-1-yl]-pyridine-3-carbonyl}-amino)-2′-trifluoromethyl-biphenyl-4-yl]-1H-imidazol-2-yl}-pyrrolidine-1-carbonyl)-2-methyl-propyl]-carbamic acid methyl ester], the EC50 in assay [1] (setting [3]) and in assay [2] was less than 0.1 nM throughout.

As to `COC(=O)N[C@H](C(=O)N1CCC[C@H]1c1nc(-c2ccc(-c3ccc(NC(=O)c4ccc(N5CCN(C(=O)C6CC6)C[C@H]5C)nc4)cc3F)cc2)c[nH]1)C(C)C` [Example 46], the values for the EC50 in assay [1] (setting [3]) and in assay [2] were 0.1 to 1 nM and less than 0.1 nM, respectively.

With `CNC(=O)N1CCC[C@@]1(C)C(=O)N1CCN(c2ccc(C(=O)Nc3cc(OC(F)(F)F)c(-c4ccc(-c5c[nH]c([C@@H]6CCCN6C(=O)[C@@H](NC(=O)OC)C(C)C)n5)cc4)cc3Cl)cn2)[C@H](C)C1` [Example 27-73], the EC50 in assay [1] (setting [3]) and in assay [2] was less than 0.1 nM throughout.

As for `COC(=O)N[C@H](C(=O)N1CCC[C@H]1c1nc(-c2ccc(-c3ccc(C(=O)Nc4ccc(N5CCN(C(=O)OC(C)(C)C)CC5)cc4)cc3)cc2)c[nH]1)C(C)C` [Example 6, 4-{4-[(4′-{2-[(S)-1-((S)-2-Methoxycarbonylamino-3-methyl-butyryl)-pyrrolidin-2-yl]-1H-imidazol-4-yl}-biphenyl-4-carbonyl)-amino]-phenyl}-piperazine-1-carboxylic acid tert-butyl ester], the values for the EC50 in assay [1] (setting [4]) and in assay [2] were 10 to 100 nM and less than 0.1 nM, respectively.

With `COCCNC(=O)N1CCN(c2ccc(C(=O)Nc3cc(OC(F)(F)F)c(-c4ccc(-c5c[nH]c([C@@H]6CCCN6C(=O)[C@@H](NC(=O)OC)C(C)C)n5)cc4)cc3F)cn2)[C@H](C)C1` [Example 27-38], the EC50 in assay [1] (setting [3]) and in assay [2] was less than 0.1 nM each time.

Consider `COC(=O)N[C@H](C(=O)N1CCC[C@H]1c1nc(-c2ccc(-c3ccc(C(=O)Nc4ccc(N5CCN(C(=O)C6CC6)CC5)cc4)cc3)cc2)c[nH]1)C(C)C` [Example 7, {(S)-1-[(S)-2-(4-{4′-[4-(4-cyclopropanecarbonyl-piperazin-1-yl)-phenylcarbamoyl]-biphenyl-4-yl}-1H-imidazol-2-yl)-pyrrolidine-1-carbonyl]-2-methyl-propyl}-carbamic acid methyl ester], for which the EC50 in assay [1] (setting [4]) is 1 to 10 nM; in assay [2], less than 0.1 nM.

Regarding `COC(=O)N[C@H](C(=O)N1CCC[C@H]1c1nc(-c2ccc(-c3cc(F)c(NC(=O)c4ccc(N5CCN(C(=O)[C@]6(C)CCCN6C(=O)CN(C)C)C[C@H]5C)nc4)cc3OC(F)(F)F)cc2)c[nH]1)C(C)C` [Example 27-50], the EC50 in assay [1] (setting [3]) and in assay [2] was less than 0.1 nM in each case.

For `CNC(=O)N1CCN(c2ccc(C(=O)Nc3cc(F)c(-c4ccc(-c5c[nH]c([C@@H]6CCCN6C(=O)[C@@H](NC(=O)OC)C(C)C)n5)cc4)c(F)c3)cn2)[C@H](C)C1` [Example 43], the EC50 is 0.1 to 1 nM in assay [1] (setting [3]) and less than 0.1 nM in assay [2].

As for `COC(=O)N[C@H](C(=O)N1CCC[C@H]1c1nc(-c2ccc(-c3cc(F)c(NC(=O)c4ccc(N5C[C@H](C)N(C(=O)c6cc[nH]n6)C[C@H]5C)nc4)cc3OC(F)(F)F)cc2)c[nH]1)C(C)C` [Example 60], the EC50 in assay [1] (setting [3]) and in assay [2] was less than 0.1 nM each time.

Turning to `COC(=O)N[C@H](C(=O)N1CCC[C@H]1c1nc(-c2ccc(-c3ccc(NC(=O)c4ccc(N5CCN(C(=O)[C@H]6CC6(C)C)C[C@H]5C)nc4)cc3)cc2)c[nH]1)C(C)C` [Example 14, [(S)-1-((S)-2-{4-[4′-({6-[(R)-4-((S)-2,2-Dimethyl-cyclopropane-carbonyl)-2-methyl-piperazin-1-yl]-pyridine-3-carbonyl}-amino)-biphenyl-4-yl]-1H-imidazol-2-yl}-pyrrolidine-1-carbonyl)-2-methyl-propyl]-carbamic acid methyl ester], the EC50 in assay [1] (setting [3]) and in assay [2] was less than 0.1 nM in each case.

For the compound `COC(=O)N[C@H](C(=O)N1CCC[C@H]1c1nc(-c2ccc(-c3c(F)cc(NC(=O)c4ccc(N5CCN(C(=O)c6c[nH]cn6)C[C@H]5C)nc4)cc3F)cc2)c[nH]1)C(C)C` [Example 44], the EC50 in assay [1] (setting [3]) is 0.1 to 1 nM; in assay [2], less than 0.1 nM.

As for `COC(=O)N[C@H](C(=O)N1CCC[C@H]1c1nc(-c2ccc(-c3c(F)cc(NC(=O)c4ccc(N5CCN(C(=O)C6CC6)C[C@H]5C)nc4)cc3F)cc2)c[nH]1)C(C)C` [Example 42], the EC50 is 0.1 to 1 nM in assay [1] (setting [3]) and less than 0.1 nM in assay [2].

As for `COCC(=O)N1CCC[C@@]1(C)C(=O)N1CCN(c2ccc(C(=O)Nc3cc(OC(F)(F)F)c(-c4ccc(-c5c[nH]c([C@@H]6CCCN6C(=O)[C@@H](NC(=O)OC)C(C)C)n5)cc4)cc3F)cn2)[C@H](C)C1` [Example 27-46], the EC50 in assay [1] (setting [3]) and in assay [2] was less than 0.1 nM throughout.

Regarding `COC(=O)N[C@H](C(=O)N1CCC[C@H]1c1nc(-c2ccc(-c3ccc(NC(=O)c4ccc(N5CCN(C(=O)[C@H]6CC6(C)C)C[C@H]5C)nc4)cc3OC(F)(F)F)cc2)c[nH]1)C(C)C` [Example 25, [(S)-1-((S)-2-{5-[4′-({6-[(R)-4-((S)-2,2-Dimethyl-cyclopropanecarbonyl)-2-methyl-piperazin-1-yl]-pyridine-3-carbonyl}-amino)-2′-trifluoromethoxy-biphenyl-4-yl]-1H-imidazol-2-yl}-pyrrolidine-1-carbonyl)-2-methyl-propyl]-carbamic acid methyl ester], the EC50 in assay [1] (setting [3]) and in assay [2] was less than 0.1 nM in each case.

Regarding `COC(=O)N[C@H](C(=O)N1CCC[C@H]1c1nc(-c2ccc(-c3ccc(NC(=O)c4ccc(N5CCN(C(=O)C6CC6)C[C@H]5C)nc4)cc3)cc2)c[nH]1)C(C)C` [Example 12, ((S)-1-{(S)-2-[4-(4′-{[6-((R)-4-Cyclopropanecarbonyl-2-methyl-piperazin-1-yl)-pyridine-3-carbonyl]-amino}-biphenyl-4-yl)-1H-imidazol-2-yl]-pyrrolidine-1-carbonyl}-2-methyl-propyl)-carbamic acid methyl ester], the EC50 in assay [1] (setting [3]) was 0.1 to 1 nM; in assay [2], less than 0.1 nM.

Turning to `CCOc1cc(NC(=O)c2ccc(N3CCN(C(=O)[C@]4(C)CCCN4C(=O)[C@@H](NC(=O)OC)C(C)C)C[C@H]3C)nc2)ccc1-c1ccc(-c2c[nH]c([C@@H]3CCCN3C(=O)[C@@H](NC(=O)OC)C(C)C)n2)cc1` [Example 21, [(S)-1-((S)-2-{4-[2′-Ethoxy-4′-({6-[(R)-4-((S)-1-{(S)-2-methoxycarbonylamino-3-methyl-butyryl}-2-methyl-pyrrolidine-2-carbonyl)-2-methyl-piperazin-1-yl]-pyridine-3-carbonyl}-amino)-biphenyl-4-yl]-1H-imidazol-2-yl}-pyrrolidine-1-carbonyl)-2-methyl-propyl]-carbamic acid methyl ester], the EC50 in assay [1] (setting [3]) and in assay [2] was less than 0.1 nM throughout.

For the compound `COC(=O)N[C@H](C(=O)N1CCC[C@H]1c1nc(-c2ccc(-c3ccc(NC(=O)c4ccc(N5CCN(C(=O)[C@H]6CC6(C)C)C[C@H]5C)nc4)cc3F)cc2)c[nH]1)C(C)C` [Example 45, [(S)-1-((S)-2-{5-[4′-({6-[(R)-4-((S)-2,2-Dimethyl-cyclopropanecarbonyl)-2-methyl-piperazin-1-yl]-pyridine-3-carbonyl}-amino)-2′-fluoro-biphenyl-4-yl]-1H-imidazol-2-yl}-pyrrolidine-1-carbonyl)-2-methyl-propyl]-carbamic acid methyl ester], the EC50 in assay [1] (setting [3]) and in assay [2] was less than 0.1 nM each time.

For the compound `COCC(=O)N1CCC[C@@]1(C)C(=O)N1CCN(c2ccc(NC(=O)c3ccc(-c4ccc(-c5c[nH]c([C@@H]6CCCN6C(=O)[C@@H](NC(=O)OC)C(C)C)n5)cc4)c(OC(F)(F)F)c3)cn2)[C@H](C)C1` [Example 66], the EC50 in assay [1] (setting [3]) and in assay [2] was less than 0.1 nM in each case.

On to `CCN(CC)[C@@H](C(=O)N1CCC[C@H]1c1nc(-c2ccc(-c3ccc(NC(=O)c4ccc(N5CCN(C(=O)C6CC6)CC5)cc4)cc3)cc2)c[nH]1)c1ccccc1` [Example 9, 4-(4-Cyclopropanecarbonyl-piperazin-1-yl)-N-(4′-{2-[(S)-1-((R)-2-diethylamino-2-phenyl-acetyl)-pyrrolidin-2-yl]-1H-imidazol-4-yl}-biphenyl-4-yl)-benzamide], for which the figures for the EC50 in assay [1] (setting [4]) and in assay [2] were 0.1 to 1 nM and less than 0.1 nM, respectively.

Values taken from patent US8921372B2, “Inhibitors of hepatitis C virus” (Theravance Biopharma R&D IP, LLC, priority 2010, dated 2014).
